# From article PMC4821443 (MedChemComm, 2015)
# Columns and labels:
# [1] = system: breast cancer subpanel (six cell lines); assay: NCI-60 screen, breast cancer subpanel summary; type: cell-based; settings: Homo sapiens, T47D, read-out: GI50 values range, breast cancer subpanel
# tubulin = tubulin (Sus scrofa, UniProt P02550+P02554); assay: In vitro tubulin polymerization assay; type: biochemical; settings: at concentrations as high as 200 µM (data not shown)
# [2] = system: panel of 60 human cancer cell lines; assay: NCI-60 cell line anti-cancer screen, whole panel summary; type: cell-based; settings: read-out: average GI50 value against all the cancer cell lines screened, NCI-60 panel
# Chain of tubulin (P02550 whole entry): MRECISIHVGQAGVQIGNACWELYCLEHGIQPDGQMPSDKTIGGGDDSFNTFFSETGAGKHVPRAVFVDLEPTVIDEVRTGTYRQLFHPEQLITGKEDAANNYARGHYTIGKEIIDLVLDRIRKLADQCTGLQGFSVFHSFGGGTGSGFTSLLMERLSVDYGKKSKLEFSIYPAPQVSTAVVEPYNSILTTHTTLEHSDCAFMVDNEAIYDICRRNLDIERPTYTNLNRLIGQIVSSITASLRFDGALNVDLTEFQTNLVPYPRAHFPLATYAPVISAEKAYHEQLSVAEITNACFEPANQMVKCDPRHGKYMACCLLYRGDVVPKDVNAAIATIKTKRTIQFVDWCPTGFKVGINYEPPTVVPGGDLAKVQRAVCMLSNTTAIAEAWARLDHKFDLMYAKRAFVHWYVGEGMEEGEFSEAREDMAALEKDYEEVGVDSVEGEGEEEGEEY
# Chain of tubulin (P02554 whole entry): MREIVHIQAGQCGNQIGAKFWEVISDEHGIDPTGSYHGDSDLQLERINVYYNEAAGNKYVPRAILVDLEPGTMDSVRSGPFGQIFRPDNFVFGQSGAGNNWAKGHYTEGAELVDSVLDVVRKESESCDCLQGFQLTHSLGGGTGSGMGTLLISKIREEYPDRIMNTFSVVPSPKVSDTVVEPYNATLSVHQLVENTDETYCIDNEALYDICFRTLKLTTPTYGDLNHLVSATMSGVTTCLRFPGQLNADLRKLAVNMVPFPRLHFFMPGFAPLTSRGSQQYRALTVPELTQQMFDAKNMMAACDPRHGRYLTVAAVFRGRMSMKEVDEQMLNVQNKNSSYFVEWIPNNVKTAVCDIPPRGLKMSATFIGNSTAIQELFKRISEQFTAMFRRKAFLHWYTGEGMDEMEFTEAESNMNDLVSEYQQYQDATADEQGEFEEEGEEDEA
inhibition of tubulin polymerization (tubulin),Structure (SMILES),GI50 [1] [nM],GI50 [2] [nM]
,"COc1cc(-c2n[nH]nc2-c2cc3ccccc3s2)cc(OC)c1OC [Compound 8a, 4-(benzo[b]thiophen-2-yl)-5-(3,4,5-trimeth-oxyphenyl)-2H-1,2,3-triazole]",≤ 14,
failed to inhibit tubulin polymerization,"COc1cc(-c2nn(C)nc2-c2cc3ccccc3s2)cc(OC)c1OC [Compound 9, 4-(benzo[b]thiophen-2-yl)-2-methyl-5-(3,4,5-trimethoxyphenyl)-2H-1,2,3-triazole]",40 to 1600,
,COc1ccc(-c2n[nH]nc2-c2csc3ccccc23)cc1OC [Compound 11b],630 to 3210,
,COc1cc(-c2n[nH]nc2-c2c[nH]c3ccccc23)cc(OC)c1OC [Compound 11d],28 to 89,424
,COc1cc(OC)cc(-c2n[nH]nc2-c2c[nH]c3ccccc23)c1 [Compound 11e],17 to 76,856
